As usually defined, the EC50 is the concentration needed to bring the measured effect to its halfway point.

Data set [1] addresses human MC3 receptor (Homo sapiens (Human), UniProt P41968). Briefly: Human MC receptor activation, cAMP production in cells expressing human MC3 receptor. Type of data set: cell-based. As to conditions: FreeStyle 293-F cells transiently expressing human MC3 receptor, α-MSH maximum = 100%. The source says:
(§1) (1) Construction of Human MC Receptor-Expressing Vector
(§2) A human MC4 receptor gene (GenBank Accession No.: NM_005912.2), a human MC1 receptor gene (GenBank Accession No.: NM_002386.3), or a human MC3 receptor gene (GenBank Accession No.: NM_019888.3) was introduced into an expression vector pcDNA™ 3.1/V5-His TOPO (registered trademark) (Thermo Fisher Scientific Inc.).
(§3) (2) Construction of Cells Transiently Expressing Human MC Receptor
(§4) An expression vector for a human MC4, MC1, or MC3 receptor was introduced into FreeStyle™ 293-F cell (Thermo Fisher Scientific Inc., product number: R790-07). For the introduction, electroporation was employed. That is, 1×10^7 FreeStyle™ 293-F cell were suspended in 80 μL of an electroporation buffer (Thermo Fisher Scientific Inc., product number: B201-100), and 20 μg of the expression vector was added thereto. The resultant was put into a cuvette (OC-100 Processing Assembly, MaxCyte, Inc.) and electroporated with MaxCyte SIX (registered trademark) (MaxCyte, Inc.). The cells were cultured over one day, suspended in a Cell Banker (registered trademark) 1 (JUJI FIELD Inc.), product number: BLC-1), and stored frozen until their use.
(§5) (3) Measurement of Amount of cAMP Produced
(§6) Measurement was carried out by using a LANCE (registered trademark) Ultra cAMP Kit (PerkinElmer, Inc.) in accordance with the attached instructions. That is, after dissolution in DMSO, the test compound (a final concentration of 1 pM to 30 μM) diluted with an assay buffer (Hank's balanced salt solution, 5 mM 4-(2-hydroxyethyl)-1-piperazineethanesulfonic acid (HEPES), 0.5 mM 3-isobutyl-1-methylxanthine (IBMX), 0.1% bovine serum albumin, pH 7.4), or α-MSH (Bachem Inc., a final concentration of 1 pM to 30 μM) was added to OptiPlate-384 (PerkinElmer, Inc.). Furthermore, a suspension of cells transiently expressing the human MC4, MC1, or MC3 receptor prepared by using the assay buffer was added thereto at 1,000 cells/well, followed by being left to stand at room temperature for about 1 hour. Thereafter, an Eu-cAMP tracer solution and an ULight™-anti-cAMP solution were added thereto, followed by being left to stand at room temperature for about 1 hour. The amount of cAMP was calculated using EnVision (registered trademark) (PerkinElmer Inc.).
(§7) For the agonistic activity, an efficacy (EC50 (μM)) was calculated by a non-linear regression method with a Sigmoid-Emax model, by defining the maximum reaction with α-MSH as 100% and the reaction with the vehicle alone as 0%, respectively.

Data set [2] addresses human MC4 receptor (Homo sapiens (Human), UniProt P32245). Description: Human MC receptor activation, cAMP production in cells expressing human MC4 receptor. Type of data set: cell-based. To be noted: FreeStyle 293-F cells transiently expressing human MC4 receptor, α-MSH maximum = 100%.
Text: as §1, §2, §3, §4, §5, §6, §7
(Changes in cAMP serve as a functional read-out for many G protein-coupled receptors.)

For data set [3], the target named is human MC1 receptor (Homo sapiens (Human), UniProt Q01726). Description: Human MC receptor activation, cAMP production in cells expressing human MC1 receptor. Type of data set: cell-based. To be noted: FreeStyle 293-F cells transiently expressing human MC1 receptor, α-MSH maximum = 100%.
Text: as §1, §2, §3, §4, §5, §6, §7

The subject of data set [4] is Male SD rats. Description: Rat erection-inducing action. Type of data set: in vivo. To be noted: 10 mg/kg intravenously, erections up to one hour after administration, vs vehicle, P<0.05. As for the experimental part: Male SD rats (Charles River Laboratories Japan, Inc.) were used. A test compound (10 mg/kg) or the vehicle (20% dimethyl acetamide, 10% Cremophor (registered trademark), 70% physiological saline) was administered intravenously through the tail vein. After administration, the rats were transferred to transparent observation cages made of plastic to measure the erection times of up to one hour after administration. The measurements were carried out for five groups (3 to 7 animals per group): vehicle groups, Example compound groups (Ex 87, 88, and 89), and THIQ group, which had been known as an MC4 receptor agonist (J. Med. Chem., 45, 4589-4593 (2002)), as a positive control. For a statistical significance test, Dunnett's multiple comparison test was used for the comparison with vehicle control group, and it was determined whether there was an erection-inducing effect with a statistically significant difference (P<0.05).

Counter-ions that a name gives are not always drawn.

Chain of human MC3 receptor (P41968 whole entry): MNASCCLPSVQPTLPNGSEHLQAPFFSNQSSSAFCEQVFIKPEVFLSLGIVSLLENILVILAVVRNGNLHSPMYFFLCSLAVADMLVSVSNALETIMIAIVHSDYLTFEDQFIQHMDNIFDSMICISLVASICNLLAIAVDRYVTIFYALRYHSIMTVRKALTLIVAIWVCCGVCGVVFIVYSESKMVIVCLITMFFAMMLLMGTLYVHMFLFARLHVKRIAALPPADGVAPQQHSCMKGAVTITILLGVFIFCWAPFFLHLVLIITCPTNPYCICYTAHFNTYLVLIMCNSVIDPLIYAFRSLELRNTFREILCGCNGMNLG
Chain of human MC4 receptor (P32245 whole entry): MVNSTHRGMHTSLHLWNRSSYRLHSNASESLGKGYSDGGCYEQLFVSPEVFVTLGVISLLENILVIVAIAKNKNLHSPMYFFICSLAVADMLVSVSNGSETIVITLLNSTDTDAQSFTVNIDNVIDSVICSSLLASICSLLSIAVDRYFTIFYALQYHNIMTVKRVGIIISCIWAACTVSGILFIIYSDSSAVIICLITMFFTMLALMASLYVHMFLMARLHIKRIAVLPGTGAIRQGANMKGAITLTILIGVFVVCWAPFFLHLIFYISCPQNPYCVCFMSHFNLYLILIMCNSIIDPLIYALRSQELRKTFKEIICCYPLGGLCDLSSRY
Chain of human MC1 receptor (Q01726 whole entry): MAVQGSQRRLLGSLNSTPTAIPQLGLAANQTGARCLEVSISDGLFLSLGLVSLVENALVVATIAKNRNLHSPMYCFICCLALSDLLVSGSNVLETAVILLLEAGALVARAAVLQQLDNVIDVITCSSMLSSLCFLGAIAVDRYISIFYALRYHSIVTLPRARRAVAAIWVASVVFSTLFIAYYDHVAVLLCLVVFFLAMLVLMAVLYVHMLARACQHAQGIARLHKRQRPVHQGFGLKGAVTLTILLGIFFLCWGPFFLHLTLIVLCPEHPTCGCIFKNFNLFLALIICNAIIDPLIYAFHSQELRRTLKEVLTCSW

Consider `C[C@@H]1CN([C@@H](Cc2ccc3ccccc3c2)C(=O)O)C[C@H](C)N1C(=O)[C@@H]1CN(C(C)(C)C)C[C@H]1c1ccc(F)cc1F` [Example 6, (2S)-2-[(3R,5S)-4-{[(3S,4R)-1-tert-butyl-4-(2,4-difluorophenyl)pyrrolidin-3-yl]carbonyl}-3,5-dimethylpiperazin-1-yl]-3-(2-naphthyl)propanoic acid dihydrochloride], for which the EC50 was greater than 30 µM in data set [1], 0.48 µM in data set [2] and 6.4 µM in data set [3].
Consider `C[C@H]1CN([C@@H](Cc2ccc(C(F)(F)F)cc2)C(=O)O)CCN1C(=O)[C@@H]1CN(C(C)(C)C)C[C@H]1c1ccc(F)cc1F` [Example 13], for which the EC50 in data set [1] was determined as 5 µM; in data set [2], 0.048 µM.
Regarding `C[C@@H]1CN(C(=O)[C@@H]2CN(C(C)(C)C)C[C@H]2c2ccc(F)cc2F)CCN1C(Cc1ccc(Cl)c(Cl)c1)C(=O)O` (stereo partly drawn) [Example 15], the concentration for a half-maximal effect (EC50) in data set [2] was determined as 0.49 µM. This counts as sub-micromolar.
`C[C@@H]1CN(C(=O)[C@@H]2CN(C(C)(C)C)C[C@H]2c2ccc(F)cc2F)CCN1C(Cc1ccc(Cl)c(Cl)c1)C(=O)O` (stereo partly drawn) [Example 16] yielded an EC50 in data set [2] of 4.9 µM.
Still for that read-out and setting: the figure for `CC(C)(C)N1C[C@@H](C(=O)N2CCN([C@@H](Cc3ccc4ccccc4c3)C(=O)O)CC23CC3)[C@H](c2ccc(F)cc2F)C1` [Example 17] is 2.4 µM.
The same measure, in the same setting: then `C[C@H]1CN([C@@H](Cc2ccc(C#N)cc2)C(=O)O)CCN1C(=O)[C@@H]1CN(C(C)(C)C)C[C@H]1c1ccc(F)cc1F` [Example 21], with 1.7 µM.
For the compound `CN(C)CC[C@H]1CN([C@@H](Cc2ccc3ccccc3c2)C(=O)O)CCN1C(=O)[C@@H]1CN(c2ccc(=O)n(C)n2)C[C@H]1c1ccc(F)cc1F` [Example 24], the figures for the 50% effective concentration (EC50) in data set [1], in data set [2] and in data set [3] were 0.58 µM, 0.0032 µM and 15 µM, respectively.
`COC[C@H]1CN([C@@H](Cc2ccc3c(c2)CCC3)C(=O)O)CCN1C(=O)[C@@H]1CN(c2ccc(F)cc2)C[C@H]1c1ccc(F)cc1F` [Example 27]: the EC50 in data set [2] was found to be 1 µM.
`C[C@H]1CN([C@@H](Cc2ccc3c(c2)CCC3)C(=O)O)CCN1C(=O)[C@@H]1CN(C(C)(C)CO)C[C@H]1c1ccc(F)cc1F` [Example 28]: the values for the EC50 in data set [1], in data set [2] and in data set [3] were 10 µM, 0.15 µM and 3.9 µM, respectively.
The compound `C[C@H]1CN([C@@H](Cc2ccc3c(c2)CCC3)C(=O)O)CCN1C(=O)[C@@H]1CN(c2ccc(C(F)(F)F)nn2)C[C@H]1c1ccc(F)cc1F` [Example 33] gave an EC50 in data set [2] of 0.61 µM.
In turn, `C[C@H]1CN([C@@H](Cc2ccc3c(c2)CCC3)C(=O)O)CCN1C(=O)[C@@H]1CN(C(=O)C2CC2)C[C@H]1c1ccc(F)cc1F` [Example 35] came in with an EC50 in data set [2] of 0.14 µM. Against the preceding compound, the EC50 is about 4.4-fold lower.
In data set [2], `CC(C)(C)N1C[C@@H](C(=O)N2CCN([C@@H](Cc3ccc4c(c3)CCC4)C(=O)O)C[C@@H]2CC2CC2)[C@H](c2ccc(F)cc2F)C1` [Example 36] came in with an EC50 of 0.0019 µM.
The compound `COc1ccc(C2CN(C(C)(C)C)CC2C(=O)N2CCN([C@@H](Cc3ccc4c(c3)CCC4)C(=O)O)C[C@@H]2C)cc1` (stereo partly drawn) [Example 45] gave an EC50 in data set [2] of 1.1 µM.
For the compound `C[C@H]1CN([C@@H](Cc2ccc3c(c2)CCC3)C(=O)O)CCN1C(=O)C1CN(C(C)(C)C)CC1c1ccc(C#N)cc1F` (stereo partly drawn) [Example 47], the figures for the concentration giving a half-maximal response (EC50) in data set [1], in data set [2] and in data set [3] were 11 µM, 0.062 µM and greater than 30 µM, respectively.
The compound `CC[C@H]1CN([C@@H](Cc2ccc3ccccc3c2)C(=O)O)CCN1C(=O)[C@@H]1CN(C(C)=O)C[C@H]1c1ccc(F)cc1F` [Example 50] yielded a concentration for a half-maximal effect (EC50) in data set [2] of 0.064 µM.
`C[C@H]1CN([C@@H](Cc2c[nH]c3ccccc23)C(=O)O)CCN1C(=O)[C@@H]1CN(C(C)(C)C)C[C@H]1c1ccc(F)cc1F` [Example 53] showed an EC50 in data set [2] of 0.19 µM.
The same measure, in the same setting: the figure for `C[C@H]1CN([C@@H](Cc2ccc3c(c2)CCC3)C(=O)O)CCN1C(=O)C1CN(C(C)(C)C)CC1c1ccc(Cl)s1` (stereo partly drawn) [Example 55] is 0.27 µM.
In the case of `C[C@H]1CN([C@@H](CC2CCCCC2)C(=O)O)CCN1C(=O)[C@@H]1CN(C(C)(C)C)C[C@H]1c1ccc(Cl)cc1F` [Example 57], the values for the concentration giving a half-maximal response (EC50) in data set [1], in data set [2] and in data set [3] were 2.4 µM, 0.12 µM and 1.9 µM, respectively.
Turning to `C[C@H]1CN([C@@H](Cc2ccc3c(c2)CCC3)C(=O)O)CCN1C(=O)[C@@H]1CN(C2(C)CC2)C[C@H]1c1ccc(Cl)cc1F` [Example 68], a half-maximal response in data set [2] (EC50) required 0.53 µM.
`COc1ccc(C[C@@H](C(=O)O)N2CCN(C(=O)[C@@H]3CN(C(C)(C)C)C[C@H]3c3ccc(Cl)cc3F)[C@@H](C)C2)c(F)c1` [Example 69]: the 50% effective concentration (EC50) in data set [1] amounted to 2.9 µM; in data set [2] it was 0.0051 µM; in data set [3] it was 0.72 µM.
Taken in the same sequence, the figures for `C[C@H]1CN([C@@H](Cc2ccc(OC(F)F)cc2)C(=O)O)CCN1C(=O)[C@@H]1CN(C(C)(C)C)C[C@H]1c1ccc(Cl)cc1F` [Example 72] were 5.3 µM, 0.04 µM and 2.1 µM.
As for `Cc1ccc(C[C@@](C)(C(=O)O)N2CCN(C(=O)[C@@H]3CN(C4CCOCC4)C[C@H]3c3ccc(F)cc3F)[C@@H](C)C2)c(F)c1` [Example 74], the EC50 in data set [1] was 1 µM; in data set [2], 0.03 µM; in data set [3] it was 1.4 µM.
Taken in the same sequence, the figures for `Cc1ccc([C@H](C)[C@@H](C(=O)O)N2CCN(C(=O)[C@@H]3CN(C4CCOCC4)C[C@H]3c3ccc(Cl)cc3F)[C@@H](C)C2)cc1` [Example 78] were 0.68 µM, 0.016 µM and 1 µM.
`C[C@H]1CN([C@@H](Cc2ccc3c(c2)CCC3)C(=O)O)CCN1C(=O)C1CN(C(C)(C)C)CC1c1ccc2c(c1)CCC2` (stereo partly drawn) [Example 83]: the EC50 in data set [2] stood at 0.19 µM.
Still for that read-out and setting: the figure for `Cc1ccc(C[C@@H](C(=O)O)N2CCN(C(=O)C3CN(C4(C)CCOCC4)CC3c3ccc(F)cc3F)[C@@H](C)C2)c(F)c1` (stereo partly drawn) [Example 84] is 0.018 µM.
As for `C[C@H]1CN([C@@H](Cc2ccc(C3CC3)cc2F)C(=O)O)CCN1C(=O)[C@@H]1CN(C2CCOCC2)C[C@H]1c1ccc(Cl)cc1F` [Example 92], the concentration giving a half-maximal response (EC50) in data set [1] is 1.8 µM; in data set [2], 0.012 µM; in data set [3] it was 1.7 µM.
For the compound `O=C(N[C@H](Cc1ccc(Cl)cc1)C(=O)N1CCC(Cn2cncn2)(C2CCCCC2)CC1)[C@H]1Cc2ccccc2CN1` [THIQ, reference compound], the erection-inducing effect result in data set [4] is on record as “exhibited a significant erection-inducing effect”.
